ChEMBL document CHEMBL4373746, “Structural attributes influencing unbound tissue distribution” (Eur J Med Chem, 2020)

Tests used:
[1] = Total plasma concentration in Wistar Han rat at 1 to 2 mg/kg, iv infused for 10 to 20 hrs by LC-MS/MS analysis; settings: in vivo
[2] = Drug concentration in total white adipose tissue in Wistar Han rat at 1 to 2 mg/kg, iv infused for 10 to 20 hrs by LC-MS/MS analysis; settings: in vivo
[3] = Drug concentration in total brain in Wistar Han rat at 1 to 2 mg/kg, iv infused for 10 to 20 hrs by LC-MS/MS analysis; settings: in vivo
[4] = Drug concentration in total heart in Wistar Han rat at 1 to 2 mg/kg, iv infused for 10 to 20 hrs by LC-MS/MS analysis; settings: in vivo
[5] = Drug concentration in total liver in Wistar Han rat at 1 to 2 mg/kg, iv infused for 10 to 20 hrs by LC-MS/MS analysis; settings: in vivo
[6] = Drug concentration in total skeletal muscle in Wistar Han rat at 1 to 2 mg/kg, iv infused for 10 to 20 hrs by LC-MS/MS analysis; settings: in vivo
[7] = Unbound tissue partition coefficient, ratio of drug level in heart to plasma in Wistar Han rat at 1 to 2 mg/kg, iv infused for 10 to 20 hrs by LC-MS/MS analysis; settings: heart/plasma
[8] = Unbound tissue partition coefficient, ratio of drug level in brain to plasma in Wistar Han rat at 1 to 2 mg/kg, iv infused for 10 to 20 hrs by LC-MS/MS analysis; settings: brain/plasma
[9] = Unbound tissue partition coefficient, ratio of drug level in adipose to plasma in Wistar Han rat at 1 to 2 mg/kg, iv infused for 10 to 20 hrs by LC-MS/MS analysis; settings: adipose/plasma
[10] = Unbound tissue partition coefficient, ratio of drug level in liver to plasma in Wistar Han rat at 1 to 2 mg/kg, iv infused for 10 to 20 hrs by LC-MS/MS analysis; settings: liver/plasma
[11] = Unbound tissue partition coefficient, ratio of drug level in skeletal muscle to plasma in Wistar Han rat at 1 to 2 mg/kg, iv infused for 10 to 20 hrs by LC-MS/MS analysis; settings: skeletal muscle/plasma
[12] = Fraction unbound in Wistar Han rat plasma at 2 uM incubated for 6 hrs by equilibrium dialysis method
[13] = Fraction unbound in Wistar Han rat white adipose tissue at 2 uM incubated for 6 hrs by equilibrium dialysis method
[14] = Fraction unbound in Wistar Han rat brain at 2 uM incubated for 6 hrs by equilibrium dialysis method
[15] = Fraction unbound in Wistar Han rat heart at 2 uM incubated for 6 hrs by equilibrium dialysis method
[16] = Fraction unbound in Wistar Han rat liver at 2 uM incubated for 6 hrs by equilibrium dialysis method
[17] = Fraction unbound in Wistar Han rat skeletal muscle at 2 uM incubated for 6 hrs by equilibrium dialysis method
[18] = Apparent permeability of the compound across dog RRCK cells by MDCK-LE assay

| SMILES | Cp [1] | Ct [2] | Ct [3] | Ct [4] | Ct [5] | Ct [6] | Kp uu [7] | Kp uu [8] | Kp uu [9] | Kp uu [10] | Kp uu [11] | fraction unbound at 6 h, 2 µM [12] | fraction unbound at 6 h, 2 µM [13] | fraction unbound at 6 h, 2 µM [14] | fraction unbound at 6 h, 2 µM [15] | fraction unbound at 6 h, 2 µM [16] | fraction unbound at 6 h, 2 µM [17] | Papp [18] |
| --- | --- | --- | --- | --- | --- | --- | --- | --- | --- | --- | --- | --- | --- | --- | --- | --- | --- | --- |
| O=C(O)C(=O)Nc1ccc(NC(=O)[C@H](CC2CCCC2)n2cnc(C(F)(F)F)c2)nc1 | 110 ng/mL | 0.77 ng/mL | 0.38 ng/mL | 20 ng/mL | 300 ng/mL | 0.9 ng/mL | 0.75 | 0.0018 | 0.024 | 7.2 | 0.02 | – | – | – | – | – | – | – |
| O=C(NC1CCCC1)C1CCN(c2nc3cc(Cl)ccc3o2)CC1 | 310 ng/mL | 330 ng/mL | 88 ng/mL | 150 ng/mL | 210 ng/mL | 59 ng/mL | 2.2 | 0.64 | 3.9 | 4.3 | 0.61 | 0.00646 | 0.0248 | 0.0144 | 0.0292 | 0.0414 | 0.02 | 35 ×10⁻⁶ cm/s |
| Cc1nc([C@@H]2CCOC2)c2c(N3CCc4c(c(C5CC5)nn4C)C3)ncnn12 | 66 ng/mL | 270 ng/mL | 52 ng/mL | 110 ng/mL | 380 ng/mL | 75 ng/mL | 1.7 | 0.46 | 2.3 | 6.2 | 1.5 | 0.178 | 0.101 | 0.103 | 0.171 | 0.195 | 0.23 | 30 ×10⁻⁶ cm/s |
| Nc1noc2ccc(-c3cc(Cl)ccc3Oc3cc(F)c(S(=O)(=O)Nc4cscn4)cc3F)cc12 | 36 ng/mL | 11 ng/mL | 0.38 ng/mL | 54 ng/mL | 1.4 ng/mL | 18 ng/mL | 0.9 | 0.0018 | 2.4 | 0.033 | 0.54 | 0.00155 | 0.0123 | 0.00141 | 0.000968 | 0.00176 | 0.00165 | 3.8 ×10⁻⁶ cm/s |
| C[C@H]1COCCN1c1nc(-c2cnc(N)nc2)c2c(n1)N([C@@]1(C)CCN(C(=O)C(C)(C)N)C1)CC2 | 4.5 ng/mL | 45 ng/mL | 2 ng/mL | 400 ng/mL | 46 ng/mL | 38 ng/mL | 18 | 0.065 | 6.9 | 3.6 | 3.5 | 0.438 | 0.281 | 0.0654 | 0.0824 | 0.146 | 0.16 | 5.1 ×10⁻⁶ cm/s |
| Cc1c(C(=O)O)cnn1-c1nc(-c2cccc(C(F)(F)F)c2)cs1 | 93 ng/mL | 13 ng/mL | 22 ng/mL | 130 ng/mL | 520 ng/mL | 29 ng/mL | 1.4 | 0.12 | 0.86 | 3.9 | 0.45 | 0.00965 | 0.0597 | 0.00498 | 0.00954 | 0.00676 | 0.0139 | 38 ×10⁻⁶ cm/s |
| CC1(OC(=O)N2CCC(n3ncc(COc4ccc(C(N)=O)cc4F)c3C#N)CC2)CC1 | 150 ng/mL | 73 ng/mL | 40 ng/mL | 220 ng/mL | 520 ng/mL | 100 ng/mL | 2.8 | 0.24 | 1.6 | 4.7 | 1 | 0.044 | 0.137 | 0.0366 | 0.0693 | 0.0561 | 0.0634 | 26 ×10⁻⁶ cm/s |
| COc1cc2c(OC[C@H]3NC(=O)[C@@H]4C[C@]34C)nccc2cc1C(N)=O | 110 ng/mL | 16 ng/mL | 3.7 ng/mL | 100 ng/mL | 1000 ng/mL | 67 ng/mL | 1.2 | 0.032 | 0.38 | 11 | 0.8 | 0.298 | 0.803 | 0.294 | 0.399 | 0.368 | 0.403 | 19 ×10⁻⁶ cm/s |
| CC(C)n1ncc2c1C(=O)CC1(CCN(C(=O)c3ccc4[nH]nc(C(N)=O)c4c3)CC1)C2 | 65 ng/mL | 17 ng/mL | 0.38 ng/mL | 62 ng/mL | 500 ng/mL | 30 ng/mL | 1.1 | 0.0018 | 0.98 | 7.9 | 0.76 | 0.119 | 0.398 | 0.0763 | 0.121 | 0.108 | 0.172 | 3.6 ×10⁻⁶ cm/s |
| O=c1[nH]c(=S)n(CCO)c2cc[nH]c12 | 32 ng/mL | 0.86 ng/mL | 3.7 ng/mL | 45 ng/mL | 70 ng/mL | 38 ng/mL | 1.1 | 0.048 | 0.027 | 1.9 | 0.41 | 0.817 | 1 | 0.347 | 0.667 | 0.696 | 0.276 | 1.7 ×10⁻⁶ cm/s |
| Cn1cnc(-c2ccc(O[C@H]3CCN(C(=O)Cc4ccc(OC(F)(F)F)cc4)C[C@@H]3F)c(C(N)=O)c2)c1 | 76 ng/mL | 6 ng/mL | 0.38 ng/mL | 100 ng/mL | 540 ng/mL | 69 ng/mL | 0.8 | 0.0018 | 0.21 | 4.4 | 0.87 | 0.0645 | 0.179 | 0.0216 | 0.0378 | 0.0393 | 0.0611 | 14 ×10⁻⁶ cm/s |
| CC(=O)NS(=O)(=O)c1ccc(Oc2ccc(F)c(Cl)c2)c(C(F)(F)F)c1 | 450 ng/mL | 14 ng/mL | 4.4 ng/mL | 103 ng/mL | 1.4 ng/mL | 24 ng/mL | 1.8 | 0.074 | 1.6 | 0.033 | 0.72 | 0.00426 | 0.229 | 0.0319 | 0.0329 | 0.0598 | 0.0581 | 35 ×10⁻⁶ cm/s |
| CN(C)C(=O)c1cc(CC(=O)O)ccc1NC(=O)c1ccccc1-c1ccc(C(F)(F)F)cc1 | 83 ng/mL | 5.7 ng/mL | 0.42 ng/mL | 44 ng/mL | 4200 ng/mL | 21 ng/mL | 0.77 | 0.0037 | 0.1 | 49 | 0.21 | 0.214 | 0.309 | 0.183 | 0.311 | 0.205 | 0.174 | 1.4 ×10⁻⁶ cm/s |
| CC(=O)N1CCN(c2ccc(OCC3COC(Cn4ccnc4)(c4ccc(Cl)cc4Cl)O3)cc2)CC1 (stereo not drawn) [KETOCONAZOLE] | – | – | – | – | – | – | – | – | – | – | – | – | – | – | – | – | – | 4.2 ×10⁻⁶ cm/s |
